US20050250677A1, “Glycopeptide antibiotic derivatives” (priority 2002, published 2005)
Like-named read-outs stand apart in the source and are kept apart here.

Legend:
VZV (wild-type strains) = assay: Anti-VZV assay (wild-type strains): virus-induced cytopathicity in HEL cell cultures; assay type: cell-based, varicella-zoster virus; conditions: for EC50: HEL cell cultures
HIV-2(ROD) = assay: Inhibition of HIV-2 (ROD)-induced cytopathicity (giant cell formation) in CEM cells; assay type: cell-based; conditions: read-out: EC50 HIV-2 (concentration required to inhibit HIV-induced giant cell formation by 50%); HIV-2, CEM cell cultures
Procedure: (§1) A variety of glycopeptide antibiotic derivatives of vancomycin, eremomycin and teicoplanin including their aglycon derivatives were evaluated for their inhibitory activity against HIV-1 (IIIB) and HIV-2(ROD) in CEM cell cultures.

HEL cells [1] = conditions: read-out: CC50 (HEL); HEL cells; anti-VZV table
[2] = tested on: human lymphocyte Molt4/clone 8; assay: Cytostatic activity assay, Molt4/clone 8 cells; assay type: cell-based; conditions: read-out: IC50 Molt4/C8 (compound concentration required to inhibit tumor cell proliferation by 50%)
HEL cells [3] = conditions: anti-VZV table
HIV-1 (IIIB) = assay: Inhibition of HIV-1 (IIIB)-induced cytopathicity (giant cell formation) in CEM cells; assay type: cell-based; conditions: read-out: EC50 HIV-1 (concentration required to inhibit HIV-induced giant cell formation by 50%); HIV-1, CEM cell cultures
Procedure: as §1

human lymphocyte CEM = assay: Cytostatic activity assay, CEM cells; assay type: cell-based; conditions: read-out: IC50 CEM (compound concentration required to inhibit tumor cell proliferation by 50%)
murine leukemia L1210 = assay: Cytostatic activity assay, L1210 cells; assay type: cell-based; conditions: read-out: IC50 L1210 (compound concentration required to inhibit tumor cell proliferation by 50%)
FCV = assay: Feline corona virus assay in Feline Crandel kidney cells (MTS); assay type: cell-based; conditions: for EC50: FCV in FCK cells, read-out: EC50 FCV
Procedure: Feline Crandel kidney cells were seeded in 96-well microtiter plates at 24,000 cells/well. Then, 24 hrs later, an appropriate inoculum of FCV is added together with 5-fold dilutions of the test compounds. After 4 days, a MTS/PMS solution was added to each well. Following a 90 min incubation period at 37° C., the optical density of the wells was read at 498 nm in a microplate reader.

FCK cells = conditions: read-out: CC50 FCK; FCK cells
[4] = VZV strain OKA, read-out: EC50 VZV (OKA)
[5] = VZV strain YS, read-out: EC50 VZV (YS)

Structure (SMILES)	EC50 (VZV (wild-type strains); [4]) [µM]	EC50 (VZV (wild-type strains); [5]) [µM]	EC50 (HIV-2(ROD)) [µM]	CC50 (HEL cells [1]) [µM]	IC50 [2] [µM]	MTC (HEL) (HEL cells [3])	EC50 (HIV-1 (IIIB)) [µM]	IC50 (human lymphocyte CEM) [µM]	IC50 (murine leukemia L1210) [µM]	activity against FCV (FCV)	EC50 (FCV) [µM]	CC50 (FCK cells) [µM]	activity against VZV (VZV (wild-type strains))
CCCCCCCCCC[N+](C)(C)CCCNCc1c(O)cc2c(c1O)-c1cc(ccc1O)C1NC(=O)C3NC(=O)C4NC(=O)C(Cc5ccc(c(Cl)c5)Oc5cc3cc(c5O)Oc3ccc(cc3Cl)C(O)C(NC1=O)C(=O)NC2C(=O)NCCO)NC(=O)C(N)c1ccc(O)c(c1)Oc1cc(O)cc4c1 (stereo not shown) [Compound 36]	≥ 5	1.9	4.2 ± 2.47	> 200	73 ± 34	≧20-50 μM	2.1 ± 0.14	≥ 100	12 ± 0.1				
CCCCCCCCCCNC(=O)C(N)CCCCNCc1c(O)cc2c(c1O)-c1cc(ccc1O)C1NC(=O)C3NC(=O)C4NC(=O)C(Cc5ccc(c(Cl)c5)Oc5cc3cc(c5O)Oc3ccc(cc3Cl)C(O)C(NC1=O)C(=O)NC2C(=O)NCCCN(C)C)NC(=O)C(N)c1ccc(O)c(c1)Oc1cc(O)cc4c1 (stereo not shown) [Compound 16]	2.5	2.4	5.5 ± 2.1	137	76 ± 8	≧5-50 μM	3.5 ± 0.7	389 ± 99	19 ± 5				
CCCCCCCCCCNC(=O)C1NC(=O)C2NC(=O)C(NC(=O)C3NC(=O)C4NC(=O)C(Cc5ccc(c(Cl)c5)Oc5cc3cc(c5O)Oc3ccc(cc3Cl)C2O)NC(=O)C(N)c2ccc(O)c(c2)Oc2cc(O)cc4c2)c2ccc(O)c(c2)-c2c1cc(O)c(CNCCCN(C)C)c2O (stereo not shown) [Compound 20]	2	2.3	44 ± 1.4	169	58 ± 12	≧5-20 μM	4.5 ± 0.7	53 ± 11	17 ± 9				
NC(=O)CC1NC(=O)C(NC(=O)C(N)Cc2c[nH]c3ccccc23)C(O)c2ccc(c(Cl)c2)Oc2cc3cc(c2O)Oc2ccc(cc2)C(O)C2NC(=O)C(NC(=O)C3NC1=O)c1ccc(O)c(c1)-c1c(O)cc(O)cc1C(C(=O)O)NC2=O [Compound 109, N-(D-Trp)-(de-N-Me-D-Leu)eremomycin aglycon]			42.5 ± 10.6		> 250		7.3 ± 0.58	> 250	> 250	pronounced activity	28	> 100	
CNC(CC(C)C)C(=O)NC1C(=O)NC(CC(N)=O)C(=O)NC2C(=O)NC3C(=O)NC(C(=O)NC(C(=O)NCc4ccc(F)cc4)c4cc(O)cc(O)c4-c4cc3ccc4O)C(O)c3ccc(cc3)Oc3cc2cc(c3O)Oc2ccc(cc2Cl)C1O (stereo not shown) [Compound 100]			> 125		> 250		41.7 ± 20.2	> 250	> 250	pronounced activity	20	> 100	
NC(=O)CC1NC(=O)C(N)C(O)c2ccc(c(Cl)c2)Oc2cc3cc(c2O)Oc2ccc(cc2)C(O)C2NC(=O)C(NC(=O)C3NC1=O)c1ccc(O)c(c1)-c1c(O)cc(O)cc1C(C(=O)NCc1ccc(F)cc1)NC2=O (stereo not shown) [Compound 106]			30				27				74	> 300	
CNC(=O)C1NC(=O)C2NC(=O)C(NC(=O)C3NC(=O)C(CC(N)=O)NC(=O)C(NC(=O)C(CC(C)C)NC)C(O)c4ccc(c(Cl)c4)Oc4cc3cc(c4O)Oc3ccc(cc3)C2O)c2ccc(O)c(c2)-c2c1cc(O)c(CN1CCN(Cc3ccc(-c4ccccc4)cc3)CC1)c2O (stereo not shown) [Compound 8]	2.3	1.5	5.5 ± 0.7	> 50	> 100	≧20 μM	4 ± 1.7	> 100	> 100				pronounced activity
CCCCCCCCCCNCc1c(O)cc2c(c1O)-c1cc(ccc1O)C1NC(=O)C3NC(=O)C4NC(=O)C(Cc5ccc(c(Cl)c5)Oc5cc3cc(c5O)Oc3ccc(cc3Cl)C(O)C(NC1=O)C(=O)NC2C(=O)NC)NC(=O)C(NC(=O)C(N)CCCCN)c1ccc(O)c(c1)Oc1cc(O)cc4c1 (stereo not shown) [Compound 24]	1.2	1.9	6	87	41 ± 8	≧5 μM	4	46 ± 8	12 ± 6				
CCCCCCCCCCCNC1C(=O)NC2Cc3ccc(c(Cl)c3)Oc3cc4cc(c3O)Oc3ccc(cc3Cl)C(O)C3NC(=O)C(NC(=O)C4NC(=O)C(NC2=O)c2cc(O)cc(c2)Oc2cc1ccc2O)c1ccc(O)c(c1)-c1c(O)cc(O)cc1C(C(=O)NCCCN(C)C)NC3=O (stereo not shown) [Compound 32]	≥ 5	2.3	12.5 ± 3.5	30	35 ± 2	20 µM	5.5 ± 2.1	90 ± 27	23 ± 7				
CNC(CC(C)C)C(=O)NC1C(=O)NC(CC(N)=O)C(=O)NC2C(=O)NC3C(=O)NC(C(=O)NC(C(=O)N4CCC5CCCCC5C4)c4cc(O)cc(O)c4-c4cc3ccc4O)C(O)c3ccc(cc3)Oc3cc2cc(c3O)Oc2ccc(cc2Cl)C1O (stereo not shown) [Compound 101]			> 125		> 250		63.3 ± 53.5	> 250	> 250	pronounced activity	47	> 100	
CCCCCCCCCC[N+](C)(C)CCCNCc1c(O)cc2c(c1O)-c1cc(ccc1O)C1NC(=O)C3NC(=O)C4NC(=O)C(Cc5ccc(c(Cl)c5)Oc5cc3cc(c5O)Oc3ccc(cc3Cl)C(O)C(NC1=O)C(=O)NC2C(=O)O)NC(=O)C(N)c1ccc(O)c(c1)Oc1cc(O)cc4c1 (stereo not shown) [Compound 33]	≥ 5	2.4	7.5 ± 0.7	≥ 200	65 ± 1	5 to 50 µM	2.2	74 ± 5	51 ± 26				
NC1C(=O)NC2Cc3ccc(c(Cl)c3)Oc3cc4cc(c3O)Oc3ccc(cc3Cl)C(O)C3NC(=O)C(NC(=O)C4NC(=O)C(NC2=O)c2cc(O)cc(c2)Oc2cc1ccc2O)c1ccc(O)c(c1)-c1c(cc(O)c(CN2CCN(N=Cc4ccc(Cl)cc4)CC2)c1O)C(C(=O)O)NC3=O (stereo not shown) [Compound 17]	4.1	4.2	22 ± 3.5	> 50	> 100	≧20-200 μM	8 ± 2.8	> 100	97 ± 4.3				
NC(=O)CC1NC(=O)C(N)C(O)c2ccc(c(Cl)c2)Oc2cc3cc(c2O)Oc2ccc(cc2)C(O)C2NC(=O)C(NC(=O)C3NC1=O)c1ccc(O)c(c1)-c1c(O)cc(O)cc1C(C(=O)NCC13CC4CC(CC(C4)C1)C3)NC2=O (stereo not shown) [Compound 107]			3.5				5				40	> 300	
CCCCCCCCCCCCCCCCCCNCc1c(O)cc2c(c1O)-c1cc(ccc1O)C1NC(=O)C3NC(=O)C(CC(N)=O)NC(=O)C(NC(=O)C(CC(C)C)NC)C(O)c4ccc(c(Cl)c4)Oc4cc3cc(c4OC3OC(CO)C(O)C(O)C3OC3CC(C)(N)C(O)C(C)O3)Oc3ccc(cc3)C(OC3CC(C)(N)C(O)C(C)O3)C(NC1=O)C(=O)NC2C(=O)O (stereo not shown) [Compound 63]										active	3.4	15	
NC(=O)CC1NC(=O)C(N)C(O)c2ccc(c(Cl)c2)Oc2cc3cc(c2O)Oc2ccc(cc2)C(O)C2NC(=O)C(NC(=O)C3NC1=O)c1ccc(O)c(c1)-c1c(O)cc(O)cc1C(C(=O)N1CCC3CCCCC3C1)NC2=O (stereo not shown) [Compound 108]			2				2.8				81	> 300	
